This note sets out measurements from ChEMBL document CHEMBL5212743, “Selectivity Literature for EUbOPEN Chemogenomics Library wave 3” (2023).

A value given as a limit tells only on which side of the number the result lay.

Series [1] has as its target Sodium-dependent dopamine transporter (Homo sapiens, UniProt Q01959). Description: Selectivity interaction (GPCR panel (PDSP screen)) EUB0000541a SLC6A3.
Series [2] deals with Cyclin-dependent kinase 8 (Homo sapiens) (UniProt P49336). Description: Selectivity interaction (KinomeScan (DiscoverX)) EUB0000301b CDK8. As to conditions: at 1 µM.
Chain of Cyclin-dependent kinase 8 (Homo sapiens) (P49336 whole entry): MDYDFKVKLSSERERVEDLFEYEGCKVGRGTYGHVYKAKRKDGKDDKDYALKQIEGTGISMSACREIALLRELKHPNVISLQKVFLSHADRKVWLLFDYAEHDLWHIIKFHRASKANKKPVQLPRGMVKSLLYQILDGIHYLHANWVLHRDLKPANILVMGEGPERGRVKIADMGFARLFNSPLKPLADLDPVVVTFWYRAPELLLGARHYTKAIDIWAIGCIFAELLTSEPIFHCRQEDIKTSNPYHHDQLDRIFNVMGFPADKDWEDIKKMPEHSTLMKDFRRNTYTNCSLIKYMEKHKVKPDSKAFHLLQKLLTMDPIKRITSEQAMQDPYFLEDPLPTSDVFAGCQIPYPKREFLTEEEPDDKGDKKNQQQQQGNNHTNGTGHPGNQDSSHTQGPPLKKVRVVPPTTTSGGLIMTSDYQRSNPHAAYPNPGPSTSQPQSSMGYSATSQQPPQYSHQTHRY
Series [3] addresses eIF-2-alpha kinase GCN2 (Homo sapiens) (UniProt Q9P2K8). Description: Selectivity interaction (KinomeScan (DiscoverX)) EUB0000301b EIF2AK4. Conditions: at 1 µM.
The target of series [4] is T1, Gamma-aminobutyric acid receptor subunit alpha-1 (Homo sapiens, UniProt P14867).
T1 sequence (P14867 whole entry): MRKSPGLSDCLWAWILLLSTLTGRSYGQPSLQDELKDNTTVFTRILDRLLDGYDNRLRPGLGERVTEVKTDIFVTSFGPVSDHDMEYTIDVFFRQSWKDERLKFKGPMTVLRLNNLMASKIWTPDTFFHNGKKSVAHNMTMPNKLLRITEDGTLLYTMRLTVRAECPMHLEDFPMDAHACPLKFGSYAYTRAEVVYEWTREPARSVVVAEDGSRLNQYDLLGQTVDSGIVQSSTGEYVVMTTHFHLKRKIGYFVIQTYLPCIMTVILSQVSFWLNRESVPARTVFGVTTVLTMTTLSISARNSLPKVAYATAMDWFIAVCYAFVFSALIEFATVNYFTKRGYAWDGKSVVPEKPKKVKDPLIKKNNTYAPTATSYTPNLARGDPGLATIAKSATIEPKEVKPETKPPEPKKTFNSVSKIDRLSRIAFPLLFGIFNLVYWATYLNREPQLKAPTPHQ
Description: Selectivity interaction (GPCR panel (PDSP screen)) EUB0000301b GABRA1.

The target of series [5] is Serine/threonine-protein kinase Chk2 (Homo sapiens, UniProt O96017). Description: Selectivity interaction (KinomeScan (DiscoverX)) EUB0000542a CHEK2. As to conditions: at 1 µM.
Series [6] deals with Polyunsaturated fatty acid 5-lipoxygenase (Homo sapiens) (UniProt P09917). Description: (§1) Selectivity interaction (Eurofins-Panlabs screen) EUB0000542a ALOX5. Conditions: at 10 µM.
The target of series [7] is Polyunsaturated fatty acid 5-lipoxygenase (Homo sapiens, UniProt P09917). The series is described as §1.
The target in series [8] is Tyrosine-protein kinase receptor TYRO3 (Homo sapiens) (UniProt Q06418). The series is described as follows: Selectivity interaction (KinomeScan (DiscoverX)) EUB0000542a TYRO3. Conditions: at 1 µM.
Series [9] deals with Tyrosine-protein kinase JAK1 (Homo sapiens, UniProt P23458). The series is described as follows: Selectivity interaction (KinomeScan (DiscoverX)) EUB0000542a JAK1@kinase 2. Conditions: at 1 µM.
Chain of Tyrosine-protein kinase JAK1 (P23458 whole entry): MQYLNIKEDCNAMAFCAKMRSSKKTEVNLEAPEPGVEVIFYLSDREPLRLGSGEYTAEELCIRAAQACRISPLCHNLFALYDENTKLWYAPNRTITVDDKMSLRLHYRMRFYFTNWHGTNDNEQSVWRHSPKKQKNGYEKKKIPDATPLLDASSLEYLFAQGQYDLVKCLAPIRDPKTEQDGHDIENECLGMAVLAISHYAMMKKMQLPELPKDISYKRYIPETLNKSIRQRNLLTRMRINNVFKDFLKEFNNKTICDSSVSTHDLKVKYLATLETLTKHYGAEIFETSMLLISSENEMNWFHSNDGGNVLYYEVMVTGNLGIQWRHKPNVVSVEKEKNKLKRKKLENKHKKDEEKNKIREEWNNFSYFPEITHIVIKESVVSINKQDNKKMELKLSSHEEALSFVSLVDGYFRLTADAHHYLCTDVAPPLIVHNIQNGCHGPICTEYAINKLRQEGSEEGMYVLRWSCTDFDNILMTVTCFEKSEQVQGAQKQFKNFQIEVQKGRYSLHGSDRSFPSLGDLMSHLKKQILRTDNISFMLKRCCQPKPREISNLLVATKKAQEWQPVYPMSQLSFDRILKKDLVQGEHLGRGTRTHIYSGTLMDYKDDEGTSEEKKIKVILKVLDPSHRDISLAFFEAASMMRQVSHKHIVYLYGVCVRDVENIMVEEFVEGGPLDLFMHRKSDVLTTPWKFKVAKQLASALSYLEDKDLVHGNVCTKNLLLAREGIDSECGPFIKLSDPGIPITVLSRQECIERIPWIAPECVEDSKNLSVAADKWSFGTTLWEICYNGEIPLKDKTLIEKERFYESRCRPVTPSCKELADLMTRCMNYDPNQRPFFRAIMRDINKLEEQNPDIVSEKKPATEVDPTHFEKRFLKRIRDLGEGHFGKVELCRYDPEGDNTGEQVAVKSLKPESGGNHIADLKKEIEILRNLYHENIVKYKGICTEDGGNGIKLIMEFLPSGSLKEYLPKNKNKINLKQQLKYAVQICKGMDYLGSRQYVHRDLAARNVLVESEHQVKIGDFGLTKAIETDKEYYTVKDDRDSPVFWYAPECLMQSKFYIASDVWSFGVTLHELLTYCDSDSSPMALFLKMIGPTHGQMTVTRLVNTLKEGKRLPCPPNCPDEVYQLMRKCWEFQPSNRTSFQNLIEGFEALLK
For series [10], the target named is Thromboxane-A synthase (Homo sapiens) (UniProt P24557). The series is described as follows: (§2) Selectivity interaction (Eurofins-Panlabs screen) EUB0000542a CYP5A1. As to conditions: at 10 µM.
In another series the target is Thromboxane-A synthase (Homo sapiens, UniProt P24557). The description is as §2.
For series [11], the target named is T1, Gamma-aminobutyric acid receptor subunit alpha-1. Description: (§3) Selectivity interaction (GPCR panel (PDSP screen)) EUB0000707a GABRA1.
Series [12] has the same target. Described as §3. This is another data set of the same source.
Series [13] concerns the target Hepatocyte growth factor receptor (Homo sapiens) (UniProt P08581). Description: (§4) Selectivity interaction (KinomeScan (DiscoverX)) EUB0000707a MET. As to conditions: at 1 µM.
Series [14] relates to Hepatocyte growth factor receptor (Homo sapiens), P08581 [M1250T]. The series is described as §4. As to conditions: at 1 µM.
Series [15] concerns the target Phosphatidylinositol 4-kinase beta (Homo sapiens) (UniProt Q9UBF8). Description: Selectivity interaction (KinomeScan (DiscoverX)) EUB0000707a PI4KB. Conditions: at 1 µM.
In series [16] the target is Interleukin-1 receptor-associated kinase 4 (Homo sapiens) (UniProt Q9NWZ3). The series is described as follows: Selectivity interaction (KinomeScan (DiscoverX)) EUB0000707a IRAK4. As to conditions: at 1 µM.
In series [17] the target is Interferon-induced, double-stranded RNA-activated protein kinase (Homo sapiens) (UniProt P19525). The series is described as follows: Selectivity interaction (KinomeScan (DiscoverX)) EUB0000310b EIF2AK2.
The target of series [18] is Voltage-dependent L-type calcium channel subunit alpha-1C (Homo sapiens, UniProt Q13936). The series is described as follows: Selectivity interaction (Eurofins Panlabs panel (receptors, ion channel, and other enzymes)) EUB0000310b CACNA1C. Conditions: at 10 µM.
Chain of Voltage-dependent L-type calcium channel subunit alpha-1C (Q13936 whole entry): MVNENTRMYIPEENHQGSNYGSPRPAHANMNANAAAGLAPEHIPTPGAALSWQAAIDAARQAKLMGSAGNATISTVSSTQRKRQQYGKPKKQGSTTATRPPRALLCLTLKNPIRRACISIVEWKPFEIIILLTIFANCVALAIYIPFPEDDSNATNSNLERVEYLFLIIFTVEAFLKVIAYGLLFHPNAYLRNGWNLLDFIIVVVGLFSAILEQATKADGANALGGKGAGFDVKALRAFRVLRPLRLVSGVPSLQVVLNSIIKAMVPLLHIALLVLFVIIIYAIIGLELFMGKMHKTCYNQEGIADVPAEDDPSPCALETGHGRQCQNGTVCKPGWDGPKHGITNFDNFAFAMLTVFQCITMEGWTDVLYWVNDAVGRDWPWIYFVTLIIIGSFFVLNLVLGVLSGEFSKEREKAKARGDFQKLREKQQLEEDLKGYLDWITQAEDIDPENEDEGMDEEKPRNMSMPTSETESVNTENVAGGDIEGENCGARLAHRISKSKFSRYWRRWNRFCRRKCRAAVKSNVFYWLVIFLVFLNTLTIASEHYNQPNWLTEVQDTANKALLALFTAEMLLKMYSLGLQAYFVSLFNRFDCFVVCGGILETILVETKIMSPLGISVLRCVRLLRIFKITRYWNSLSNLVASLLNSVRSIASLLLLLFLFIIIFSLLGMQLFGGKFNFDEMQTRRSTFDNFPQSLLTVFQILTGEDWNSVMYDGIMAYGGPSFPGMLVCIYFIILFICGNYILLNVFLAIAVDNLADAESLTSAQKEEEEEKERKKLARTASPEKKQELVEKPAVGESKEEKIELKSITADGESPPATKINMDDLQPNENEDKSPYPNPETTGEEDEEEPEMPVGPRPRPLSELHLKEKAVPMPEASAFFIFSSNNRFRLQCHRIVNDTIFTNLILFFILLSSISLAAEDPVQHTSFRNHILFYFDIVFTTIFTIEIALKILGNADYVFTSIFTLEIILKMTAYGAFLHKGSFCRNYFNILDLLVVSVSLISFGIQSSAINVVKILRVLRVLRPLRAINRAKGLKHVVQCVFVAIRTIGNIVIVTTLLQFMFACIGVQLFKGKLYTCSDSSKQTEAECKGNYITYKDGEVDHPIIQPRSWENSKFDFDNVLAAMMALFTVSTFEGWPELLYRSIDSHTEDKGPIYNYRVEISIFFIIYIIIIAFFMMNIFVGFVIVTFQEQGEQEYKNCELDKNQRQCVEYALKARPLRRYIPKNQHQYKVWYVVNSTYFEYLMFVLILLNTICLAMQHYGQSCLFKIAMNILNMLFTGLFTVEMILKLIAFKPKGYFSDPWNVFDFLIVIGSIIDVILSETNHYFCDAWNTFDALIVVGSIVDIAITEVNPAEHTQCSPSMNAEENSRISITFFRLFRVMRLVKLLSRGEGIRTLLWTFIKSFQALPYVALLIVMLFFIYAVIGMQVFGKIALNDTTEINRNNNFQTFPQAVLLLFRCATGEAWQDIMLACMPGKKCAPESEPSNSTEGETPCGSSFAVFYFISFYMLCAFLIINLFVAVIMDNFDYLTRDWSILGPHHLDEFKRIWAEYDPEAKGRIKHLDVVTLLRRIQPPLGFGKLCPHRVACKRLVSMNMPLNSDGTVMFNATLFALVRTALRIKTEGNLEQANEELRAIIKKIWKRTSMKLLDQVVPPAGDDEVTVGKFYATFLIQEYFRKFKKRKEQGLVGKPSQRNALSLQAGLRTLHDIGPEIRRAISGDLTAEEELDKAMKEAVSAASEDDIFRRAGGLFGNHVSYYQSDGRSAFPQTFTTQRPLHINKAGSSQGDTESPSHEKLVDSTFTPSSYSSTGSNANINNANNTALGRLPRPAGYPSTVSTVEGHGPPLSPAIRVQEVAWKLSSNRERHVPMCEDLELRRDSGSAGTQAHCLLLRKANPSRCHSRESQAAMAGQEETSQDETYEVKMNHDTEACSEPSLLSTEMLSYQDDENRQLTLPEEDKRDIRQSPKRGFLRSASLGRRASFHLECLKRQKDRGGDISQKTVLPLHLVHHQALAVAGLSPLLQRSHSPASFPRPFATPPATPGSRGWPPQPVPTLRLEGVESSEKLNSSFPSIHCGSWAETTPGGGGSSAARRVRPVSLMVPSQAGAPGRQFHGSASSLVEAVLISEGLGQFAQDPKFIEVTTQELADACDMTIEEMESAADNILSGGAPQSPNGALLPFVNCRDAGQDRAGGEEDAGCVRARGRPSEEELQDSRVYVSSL
Series [19] concerns the target STE20/SPS1-related proline-alanine-rich protein kinase (Homo sapiens) (UniProt Q9UEW8). The series is described as follows: Selectivity interaction (KinomeScan (DiscoverX)) EUB0000310b STK39.
Series [20] concerns the target Sigma intracellular receptor 2 (Homo sapiens, UniProt Q5BJF2). The series is described as follows: Selectivity interaction (GPCR panel (PDSP screen)) EUB0000310b TMEM97.
The target of series [21] is Serine/threonine-protein kinase 38-like (Homo sapiens, UniProt Q9Y2H1). The series is described as follows: Selectivity interaction (KinomeScan (DiscoverX)) EUB0000310b STK38L.
Chain of Serine/threonine-protein kinase 38-like (Q9Y2H1 2-464 limits assumed): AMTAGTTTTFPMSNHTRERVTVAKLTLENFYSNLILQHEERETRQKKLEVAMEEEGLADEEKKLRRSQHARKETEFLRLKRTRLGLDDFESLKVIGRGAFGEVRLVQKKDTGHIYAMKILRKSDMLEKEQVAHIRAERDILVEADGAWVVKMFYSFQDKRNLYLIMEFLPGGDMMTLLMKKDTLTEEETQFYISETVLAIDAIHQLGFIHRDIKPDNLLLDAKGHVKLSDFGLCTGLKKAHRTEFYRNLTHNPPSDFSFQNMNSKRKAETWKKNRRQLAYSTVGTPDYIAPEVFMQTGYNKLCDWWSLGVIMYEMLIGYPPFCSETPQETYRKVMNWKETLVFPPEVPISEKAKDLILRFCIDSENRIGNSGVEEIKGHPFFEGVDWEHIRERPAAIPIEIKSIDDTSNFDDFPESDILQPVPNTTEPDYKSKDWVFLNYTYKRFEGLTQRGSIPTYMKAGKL

Chain of Phosphatidylinositol 4-kinase beta (Homo sapiens) (Q9UBF8 2-816 limits assumed): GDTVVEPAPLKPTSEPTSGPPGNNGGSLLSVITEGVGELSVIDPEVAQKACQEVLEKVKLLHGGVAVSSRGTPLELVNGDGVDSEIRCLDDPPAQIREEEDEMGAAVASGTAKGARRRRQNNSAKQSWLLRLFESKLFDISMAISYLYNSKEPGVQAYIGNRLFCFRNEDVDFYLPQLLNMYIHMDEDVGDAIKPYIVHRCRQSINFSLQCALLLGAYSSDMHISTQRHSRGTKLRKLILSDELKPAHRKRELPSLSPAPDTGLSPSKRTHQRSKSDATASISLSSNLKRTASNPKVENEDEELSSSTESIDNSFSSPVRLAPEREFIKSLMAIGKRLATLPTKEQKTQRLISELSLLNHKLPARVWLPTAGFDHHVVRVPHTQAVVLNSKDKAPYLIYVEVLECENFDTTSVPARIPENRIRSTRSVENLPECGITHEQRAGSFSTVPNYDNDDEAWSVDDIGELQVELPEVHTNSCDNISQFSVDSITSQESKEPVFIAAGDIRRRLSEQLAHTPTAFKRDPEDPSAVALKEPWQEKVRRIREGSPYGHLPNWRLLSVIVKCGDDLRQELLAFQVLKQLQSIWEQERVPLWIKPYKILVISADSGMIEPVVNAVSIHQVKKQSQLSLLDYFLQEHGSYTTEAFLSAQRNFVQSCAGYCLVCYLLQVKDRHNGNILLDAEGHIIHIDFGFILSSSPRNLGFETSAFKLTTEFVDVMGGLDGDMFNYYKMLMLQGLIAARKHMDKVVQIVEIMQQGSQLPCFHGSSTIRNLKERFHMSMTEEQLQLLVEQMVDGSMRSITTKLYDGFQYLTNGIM

The Ki is a measure of affinity in units of concentration, obtained from inhibition or displacement. Low readings indicate a stronger hold on the target, high ones a looser hold on the target. `O=C(Nc1ccc(-n2nc(-c3cccnc3)cc2C(F)(F)F)cn1)c1ccc(-c2ccccc2)c(F)c1` [BI 2049]: the Ki in series [1] was over 10000 nM.
Take `O=c1nc(-c2ccccn2)sc2ccccc12` [BTZO-1]: the % of control came out at 36% in [2] and 47% in series [3]. This compound showed a Ki in series [4] of 934 nM.
The term IC50 denotes the point on the concentration scale where inhibition reaches its midpoint. Higher therefore signals weaker potency. As to `CCOCCn1cc(C(=O)Nc2ccc(-n3nc(-c4cccnc4)cc3C(F)(F)F)cn2)ccc1=O` [BI 1935], the % of control in [5] was 0%; in series [8] it was 0%; in [9] it was 37%. The % of inhibition in series [6] was found to be 66%; in series [10] it was 96%. Further, the values for the IC50 (in [7]; against Thromboxane-A synthase) were 5920 nM and 132 nM, respectively.
In the case of `CC1=C(C#N)C(c2ccc3c(c2)c(NC(=O)c2ccccc2C)nn3C)C(C#N)=C(C)N1` [BAY-974], the Ki in series [11] and in [12] was 21 nM throughout. Also, the % of control turned out to be 24% in [13], 27% in series [14], 30% in series [15] and 7.5% in series [16].
Turning to `C[C@H](NC(=O)c1cnc2n1[C@](C)(Cc1ccc(C#N)cc1)C(=O)N2c1cc(Cl)c(F)c(Cl)c1)C(=O)NC1(c2ccccn2)CC1` [BI 1950], the % of control in [17] is 34%; in series [19], 24%; in [21], 49%. In addition, the “% of inhibition” value in series [18] worked out at 72%; in series [20], 26%.
